This is an account of results in article PMC10674403, “Imperatorin Restores Chemosensitivity of Multidrug-Resistant Cancer Cells by Antagonizing ABCG2-Mediated Drug Transport” (Pharmaceuticals, 2023).

Data set [1] has as its target T1, ABCG2 (Homo sapiens, UniProt Q9UNQ0).
T1 sequence (Q9UNQ0 1-655): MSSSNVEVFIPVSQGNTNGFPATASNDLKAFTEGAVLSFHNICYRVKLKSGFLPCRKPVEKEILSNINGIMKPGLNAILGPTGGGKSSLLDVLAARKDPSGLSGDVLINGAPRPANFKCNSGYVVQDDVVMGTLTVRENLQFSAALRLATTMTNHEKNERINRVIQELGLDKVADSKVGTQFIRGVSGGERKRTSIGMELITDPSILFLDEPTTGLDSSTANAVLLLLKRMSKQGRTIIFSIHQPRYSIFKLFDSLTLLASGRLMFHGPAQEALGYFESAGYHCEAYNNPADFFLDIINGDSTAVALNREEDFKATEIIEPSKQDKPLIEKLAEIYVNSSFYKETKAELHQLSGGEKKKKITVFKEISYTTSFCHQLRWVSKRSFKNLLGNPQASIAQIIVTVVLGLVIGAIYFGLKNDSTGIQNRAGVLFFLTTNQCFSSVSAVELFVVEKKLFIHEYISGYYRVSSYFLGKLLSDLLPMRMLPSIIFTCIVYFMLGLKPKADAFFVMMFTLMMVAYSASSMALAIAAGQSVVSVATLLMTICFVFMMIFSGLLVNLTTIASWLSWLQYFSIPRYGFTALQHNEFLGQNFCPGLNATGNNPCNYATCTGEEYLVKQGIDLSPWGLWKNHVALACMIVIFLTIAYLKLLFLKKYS
The data set is described as follows: Vanadate-sensitive ATPase stimulation in ABCG2 membrane vesicles (Pi release); also inhibition of PhA efflux in ABCG2-transfected HEK293 cells. It counts as biochemical. Also noted: membrane vesicles derived from ABCG2 baculovirus-infected High Five insect cells.

Data set [2] concerns the target T1, ABCG2. As to the kind of experiment: Fluorescent substrate accumulation/efflux by flow cytometry in ABCG2-expressing versus parental cells. It counts as cell-based. Also noted: human ABCG2-transfected R482-HEK293 cells; S1-MI-80 and H460-MX20 cells.

In general, EC50 refers to the concentration needed to bring the measured effect to its halfway point. Higher therefore signals a need for much substance. Take `CC(C)=CCOc1c2occc2cc2ccc(=O)oc12` [IMP, Imperatorin]: on ABCG2 [1], the 50% effective concentration (EC50) was approximately 170 nM. Turning to `C=Cc1c(C)c2cc3nc(c4c5[nH]c(cc6nc(cc1[nH]2)C(C)=C6CC)c(C)c5C(=O)[C@@H]4C(=O)OC)[C@@H](CCC(=O)O)[C@@H]3C` [PhA, pheophorbide A], the “Fluorescent substrate accumulation/efflux by flow cytometry in ABCG2-expressing” value on ABCG2 [2] was “ABCG2-mediated efflux of an ABCG2-specific fluorescent substrate PhA”.
